Data set [1] has as its system A549 (NSCLC) xenograft model. In words: In vivo efficacy/synergy study, relative tumor volume in A549 xenograft model. On the procedure: (§1) An in vivo efficacy study was conducted with olaparib alone as a single agent. […] Groups of animals (n=5) were dosed with olaparib (i.p.) 5 days on, 2 days off using 10-100 mg/kg doses.
(§2) Combination groups (n=5) were dosed with olaparib (i.p.) 5 days on, 2 days off, using a 50 mg/kg dose for 28 days.

Data set [2] concerns y-H2AX foci (DSB formation). As to the kind of experiment: Immunohistochemical analysis of y-H2AX foci after olaparib treatment in xenograft models. Particulars: Example 3: after olaparib treatment, i.p. 10-100 mg/kg; Colo-205 and A549 xenograft models. The format is in vivo. On the procedure:
An in vivo efficacy study was conducted with olaparib alone as a single agent. Olaparib was given as a single agent at different doses in a Colo-205 (colorectal cancer) xenograft model and in an A549 (NSCLC) xenograft model. Groups of animals (n=5) were dosed with olaparib (i.p.) 5 days on, 2 days off using 10-100 mg/kg doses.

Data set [3] concerns Colo-205 (colorectal cancer) xenograft model. As to the kind of experiment: In vivo efficacy/synergy study, relative tumor volume in Colo-205 xenograft model. The conditions noted are these: for Relative tumor volume: 5 days on. On the procedure: as §1, §2
Data set [4] can be described thus: Animal tolerability observation during BAY-1895344 dosing in the Colo-205 xenograft study. Type of data set: in vivo. Particulars: Example 2: BAY-1895344 three times a week starting with 40 mg/kg, dose gradually reduced to 20 mg/kg.

From patent publication US20220088231A1, “RADIOIMMUNOCONJUGATES AND DNA DAMAGE AND REPAIR INHIBITOR COMBINATION THERAPY” (Fusion Pharmaceuticals Inc., priority 2018, published 2022) come the findings set out here.

Each structure is given as a SMILES string. Entries after “also recorded” stand apart in the source; their conditions may differ.

For `O=C(c1cc(Cc2n[nH]c(=O)c3ccccc23)ccc1F)N1CCN(C(=O)C2CC2)CC1` [olaparib], the “Relative tumor volume (single agent efficacy)” value is on record as “modest efficacy as a single agent; also recorded: did not appear to be a dose response” in data set [1] (Example 3: olaparib i.p. 5 days on, 2 days off, 10-100 mg/kg doses (FIG. 6B)) and “modest efficacy as a single agent; also recorded: did not appear to be a dose response” in data set [3] (Example 3: olaparib i.p. 5 days on, 2 days off, 10-100 mg/kg doses (FIG. 6A)). Further, the Relative tumor volume result in data set [1] (Example 4, dosing schedule 1 (FIG. 7): [225Ac]-FPI-1434 200 nCi, olaparib i.p. 50 mg/kg, 5 days on, 2 days off for 28 days, pre-dosed 3 times prior to [225Ac]-FPI-1434, up to 28 days) is “no apparent difference in tumor volume over time”; in data set [3] (Example 4, dosing schedule 1 (FIG. 7): [225Ac]-FPI-1434 50 nCi, olaparib i.p. 50 mg/kg, 2 days off for 28 days, pre-dosed 3 times prior to [225Ac]-FPI-1434, up to 28 days) it was “demonstrated some reduction in tumor volume over time”; in data set [3] (Example 5, dosing schedule 2 (FIG. 9): [225Ac]-FPI-1434 50 nCi, olaparib i.p. 50 mg/kg, 2 days off for 28 days, first dose 24 hours after FPI-1434, up to 28 days), “demonstrated significant reduction in tumor volume overtime”; in data set [3] (Example 6 (FIG. 12): lower effective doses, [225Ac]-FPI-1434 20 nCi and olaparib 25 mg/kg i.p., 2 days off from 24 hours after until day 30) it was “no or limited therapeutic effect”. The “DSB formation by immunohistochemical analysis of y-H2AX foci” value in data set [2] is given as “no increase in DSB formation”.
For `C[C@@H]1COCCN1c1cc(-c2ccnn2C)c2ccnc(-c3ccn[nH]3)c2n1` [BAY-1895344], the Animal somnolence entry in data set [4] is “transient animal somnolence at the higher doses”.
